Reference: ChEMBL document CHEMBL1201862, “PubChem BioAssay data set” (2004)
“And” between values parts separate entries of the source, which are not always exact repeats. Equal entries are not always repeated.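 The compound was tested at five concentrations on cells cultured in 96-well plates, with a 48-hour exposure period. Here, GI50 denotes the concentration required for 50% inhibition of growth.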 The source made the active and inactive calls. Rule as the data show it: active = GI50 up to about 1.1 µM and inactive = higher.

Key:
Assay in all cases: inhibition of tumour cell growth, NCI panel, 48 h
CAKI-1 = system: CAKI-1
DU-145 = system: DU-145
HT-29 = system: HT-29
IGROV-1 = system: IGROV-1
MDA-N = system: MDA-N
NCI/ADR-RES = system: NCI/ADR-RES
OVCAR-3 = system: OVCAR-3
OVCAR-4 = system: OVCAR-4
OVCAR-5 = system: OVCAR-5
OVCAR-8 = system: OVCAR-8
RPMI-8226 = system: RPMI-8226
SF-295 = system: SF-295
SNB-19 = system: SNB-19
SW-620 = system: SW-620
TK-10 = system: TK-10
U-251 = system: U-251
UACC-257 = system: UACC-257
UACC-62 = system: UACC-62
UO-31 = system: UO-31
HCC 2998 = system: HCC 2998

| Structure (SMILES) | GI50 (CAKI-1) | GI50 (DU-145) | GI50 (HT-29) | GI50 (IGROV-1) | GI50 (MDA-N) | GI50 (NCI/ADR-RES) | GI50 (OVCAR-3) | GI50 (OVCAR-4) | GI50 (OVCAR-5) | GI50 (OVCAR-8) | GI50 (RPMI-8226) | GI50 (SF-295) | GI50 (SNB-19) | GI50 (SW-620) | GI50 (TK-10) | GI50 (U-251) | GI50 (UACC-257) | GI50 (UACC-62) | GI50 (UO-31) | GI50 (HCC 2998) |
| --- | --- | --- | --- | --- | --- | --- | --- | --- | --- | --- | --- | --- | --- | --- | --- | --- | --- | --- | --- | --- |
| CN1CCN(CC(=O)N2c3ccccc3Sc3cc4ccccc4cc32)CC1 | 13.1 µM (inactive) | 15.9 µM (inactive) | 4.31 µM (inactive) | 16.5 µM (inactive) | 10 µM (inactive) | 16.1 µM (inactive) | 12.9 µM (inactive) | 15.5 µM (inactive) | 14.8 µM (inactive) | 17.5 µM (inactive) | 14.6 µM (inactive) | 14.7 µM (inactive) | 18.4 µM (inactive) | 20.4 µM (inactive) | 15.7 µM (inactive) | 14.3 µM (inactive) | 11.6 µM (inactive) | 17.1 µM (inactive) | 13.2 µM (inactive) |  |
| COC(=O)C1CCC(=O)N1C(c1ccc(OC)cc1)c1cc(OC)c(OC)c(OC)c1 (stereo unspecified) | 0.313 µM (active) | 0.306 µM (active) | 0.255 µM (active) | 0.274 µM (active) | 0.104 µM (active) | 0.258 µM (active) | 0.261 µM (active) |  | 0.592 µM (active) | 0.348 µM (active) | 0.239 µM (active) | 0.0762 µM (active) | 0.531 µM (active) | 0.384 µM (active) | > 37.8 µM (inactive) | 0.364 µM (active) |  | 0.163 µM (active) | 1.19 µM (inactive) | 0.249 µM (active) |
| COc1ccc2c(c1)/C(=C\c1c(-c3ccccc3)nc3n1CCS3)C(=O)N2 | 4.99 µM (inactive) | 16.3 µM (inactive) | 3.71 µM (inactive) | 4.92 µM (inactive) | 1.87 µM (inactive) | 4.5 µM (inactive) | 3.82 µM (inactive) |  | 14.8 µM (inactive) | 14.6 µM (inactive) | 5.26 µM (inactive) | 3.79 µM (inactive) | 49.7 µM (inactive) | 2.99 µM (inactive) | 10.7 µM (inactive) | 7.28 µM (inactive) | 12.2 µM (inactive) | 4.83 µM (inactive) | 9.82 µM (inactive) | 10.6 µM (inactive) |
| Cn1c(=O)c2nc(SCc3ccccn3)[nH]c2n(C)c1=S | > 100 µM (inactive) | > 100 µM (inactive) | > 100 µM (inactive) | > 100 µM (inactive) | > 100 µM (inactive) | 90.4 µM (inactive) | > 100 µM (inactive) | > 100 µM (inactive) | > 100 µM (inactive) | 56 µM (inactive) | > 100 µM (inactive) | 34.2 µM (inactive) | 56 µM (inactive) | > 100 µM (inactive) | 86.7 µM (inactive) | 46.7 µM (inactive) | > 100 µM (inactive) | 34 µM (inactive) | 70.5 µM (inactive) |  |
| NC(CC(=O)OCc1ccccc1)C(=O)OCc1ccccc1 (stereo unspecified) | 63.1 µM (inactive) | > 100 µM (inactive) |  | > 100 µM (inactive) | > 100 µM (inactive) | > 100 µM (inactive) | > 100 µM (inactive) |  | > 100 µM (inactive) | > 100 µM (inactive) | > 100 µM (inactive) | > 100 µM (inactive) | > 100 µM (inactive) | > 100 µM (inactive) | > 100 µM (inactive) |  | > 100 µM (inactive) | > 100 µM (inactive) | 69.5 µM (inactive) | 33.2 µM (inactive) |
| CC(=O)OC1OC(C2c3cccc(O)c3C(=O)c3c(O)cc(CO)cc32)C(O)C(O)C1O (stereo unspecified) | 2.78 µM (inactive) and 2.23 µM (inactive) | 4.55 µM (inactive) and 4.88 µM (inactive) | 3.74 µM (inactive) and 3.92 µM (inactive) | 4.14 µM (inactive) and 3.87 µM (inactive) | 3.74 µM (inactive) and 3.13 µM (inactive) | 3.88 µM (inactive) and 2.93 µM (inactive) |  | 5.38 µM (inactive) and 6.61 µM (inactive) | 3.94 µM (inactive) and 2.4 µM (inactive) | 4.31 µM (inactive) and 3.61 µM (inactive) |  | 2.72 µM (inactive) and 3.62 µM (inactive) | 2.88 µM (inactive) and 3.33 µM (inactive) | 3.66 µM (inactive) and 3.03 µM (inactive) | 5.69 µM (inactive) and 5.81 µM (inactive) | 3.66 µM (inactive) | 6.47 µM (inactive) and 7.45 µM (inactive) | 4.22 µM (inactive) and 4.29 µM (inactive) | 6.46 µM (inactive) and 7.96 µM (inactive) | 1.85 µM (inactive) and 3.03 µM (inactive) |
| CC(C)(C)c1cc(C(C)(C)C)c2sc(=S)oc2c1O | 5.64 µM (inactive) | 11.7 µM (inactive) | 14.9 µM (inactive) | 9.98 µM (inactive) | 6.01 µM (inactive) | 9.89 µM (inactive) | 5.14 µM (inactive) | 11.7 µM (inactive) | 7.46 µM (inactive) | 6.34 µM (inactive) | 7.33 µM (inactive) | 10.5 µM (inactive) | 12.7 µM (inactive) | 9.1 µM (inactive) | 1.18 µM (inactive) | 6.3 µM (inactive) | 14.3 µM (inactive) | 10.4 µM (inactive) | 4.12 µM (inactive) |  |
| Cc1nccn1S(=O)(=O)c1ccc(Br)cc1Br | 30 µM (inactive) | 42.9 µM (inactive) | 29.1 µM (inactive) | 41.8 µM (inactive) | 20.7 µM (inactive) | 28.5 µM (inactive) | 22.7 µM (inactive) | 29.5 µM (inactive) | 35.1 µM (inactive) | 44.4 µM (inactive) | 19.5 µM (inactive) | 27.7 µM (inactive) | 25.9 µM (inactive) | 28.5 µM (inactive) | 38.6 µM (inactive) | 44.7 µM (inactive) | 34.9 µM (inactive) | 33.6 µM (inactive) | 22.3 µM (inactive) |  |
| CNC(=O)CCCNC(=O)CCCC(=O)OC | > 100 µM (inactive) | > 100 µM (inactive) | > 100 µM (inactive) | > 100 µM (inactive) | > 100 µM (inactive) | > 100 µM (inactive) | > 100 µM (inactive) |  | > 100 µM (inactive) | > 100 µM (inactive) | > 100 µM (inactive) | > 100 µM (inactive) | > 100 µM (inactive) | > 100 µM (inactive) | > 100 µM (inactive) | > 100 µM (inactive) | > 100 µM (inactive) | > 100 µM (inactive) | > 100 µM (inactive) | > 100 µM (inactive) |
| Cc1cn2c(/C=C3/C(=O)Nc4ccccc43)c(C)nc2s1 | 3.07 µM (inactive) | 3.89 µM (inactive) | 0.605 µM (active) | 0.634 µM (active) | 0.165 µM (active) | 2.39 µM (inactive) | 0.787 µM (active) |  | 6.55 µM (inactive) | 3.54 µM (inactive) | 1.75 µM (inactive) | 0.652 µM (active) | 3.32 µM (inactive) | 0.504 µM (active) | 3.78 µM (inactive) | 2.24 µM (inactive) | 2.78 µM (inactive) | 1.33 µM (inactive) | 5.6 µM (inactive) | 1.84 µM (inactive) |
